Results taken from US11299712B2, “Method for inducing differentiation of alveolar epithelial cells” (KYOTO UNIVERSITY, priority 2015, dated 2022).

Test system: type II alveolar epithelial cells
Experiment: Three-dimensional subculture of type II alveolar epithelial cells (AT2-P0 to AT2-P1) in medium for Step 5 with additives, SFTPC-GFP reporter cells
Assay type: cell-based, human
Conditions: for percentage of type II alveolar epithelial cells maintained of the whole including fibroblasts used for coculture / percentage of type II alveolar epithelial cells maintained relative to the epithelial cell component: AT2-P1, medium for Step 5 plus additive (300 ng/ml WIF, 100 ng/ml IGF2, 10 ng/ml EGF, 20 ng/ml NRG1 β, 3 μM CHIR99021); for percentage of type II alveolar epithelial cells maintained of the whole including fibroblasts used for coculture: control 9.4%; for percentage of type II alveolar epithelial cells maintained relative to the epithelial cell component: control 48.4%; for maintenance of type II alveolar epithelial cells compared with medium supplemented with EGF, NRG1β, CHIR99021: WIF1 300 ng/ml or IGF2 100 ng/ml vs EGF 10 ng/ml, NRG1β 20 ng/ml, CHIR99021 3 μM; for maintenance of type II alveolar epithelial cells in subculture (FIG. 17): medium for Step 5 supplemented with WIF1 (300 ng/ml) or IGF2 (100 ng/ml)
Description: On Day 35 of type II alveolar epithelial cell induction in Example 1 (i.e., upon completion of Step 5), the cell mass composed of fibroblasts and spheroids subjected to three-dimensional coculture was removed from the Cell Culture Inserts. The removed cell mass was cut into small pieces of approximately 1 mm with the use of a clean surgical knife, the cells were recovered with the addition of PBS, and centrifugation was carried out at 900 rpm for 5 minutes to remove the supernatant. 0.1% Trypsin/EDTA was added to the precipitate and incubation was then carried out at 37° C. for 15 minutes while adequately repeating pipetting.
Subsequently, DMEM supplemented with 2% FBS was added to neutralize trypsin, followed by centrifugation at 4° C. and 900 rpm for 7 minutes. The supernatant was suction-removed, 1% BSA/PBS was added to the remaining cell pellet, and the resultant was centrifuged again at 4° C. and 900 rpm for 5 minutes. The cell pellet was suspended in 1% BSA/PBS, the mouse anti-human Ep-CAM antibody (Santa Cruz) was added thereto, and the reaction was allowed to proceed at 4° C. for 20 minutes.
Subsequently, the cells were washed 2 times with 1% BSA/PBS, the ALEXA FLUOR® 647-labeled anti-mouse antibody (Life Technologies) was added thereto, and the reaction was allowed to proceed at 4° C. for 20 minutes. After the reaction product was washed 2 times with 1% BSA/PBS, propidium iodide was added in the end, and SFTPC-GFP-positive cells were isolated via FACS with the use of BD FACSAria® II or Aria® III (BD Biosciences). The isolated cells were used as the type II alveolar epithelial cells (AT2-P0).
When type II alveolar epithelial cells were to be subcultured, the type II alveolar epithelial cells were mixed with human fetal lung fibroblasts immediately after isolation, or cryopreserved type II alveolar epithelial cells were mixed with human fetal lung fibroblasts at a ratio of 1:50, the cell suspension of the medium for Step 5 comprising the cells at a cell density of 2.5×10^6 cells/ml and Y-27632 at the final concentration of 10 μM was mixed with MATRIGEL® (Corning) at a ratio of 1:1 at a low temperature, the resultant was immediately added to the upper layer of the Cell Culture Inserts, and the medium for Step 5 was added to the lower layer. The amount to be added to the upper layer of the 12-well plate Cell Culture Inserts is preferably 200 to 400 μL and the amount to be added to the lower layer thereof is preferably 1 ml.
On the first 2 days after the subculture, Y-27632 was added to the medium for Step 5 to the final concentration of 10 μM. Thereafter, the medium for Step 5 of the lower layer was selectively exchanged with another medium every other day. The type II alveolar epithelial cells were isolated 14 days after the initiation of culture, and culture was continued by repeating the three-dimensional coculture with the human fetal lung fibroblasts. As a subculture goes on to the following generation, the cells were designated as AT2-P1, AT2-P2. . . .

Compound | percentage of type II alveolar epithelial cells maintained of the whole including fibroblasts used for coculture [%] | percentage of type II alveolar epithelial cells maintained relative to the epithelial cell component [%] | maintenance of type II alveolar epithelial cells compared with medium supplemented with EGF, NRG1β, CHIR99021 | maintenance of type II alveolar epithelial cells in subculture (FIG. 17)
Cc1c[nH]c(-c2cnc(NCCNc3ccc(C#N)cn3)nc2-c2ccc(Cl)cc2Cl)n1 [CHIR99021, 6-[2-[4-(2,4-dichlorophenyl)-5-(4-methyl-1H-imidazol-2-yl)pyrimidin-2-ylamino]-ethylamino]pyridine-3-carbonitrile, reference compound] | 0.5 | 23.8 | – | –
EGF: EGF (Wako), medium additive | 1.2 | 5.3 | – | –
IGF2: protein encoded by the polynucleotide shown in NCBI Accession Number NM_000612 (R&D Systems) | 16.6 | 58.0 | maintained with higher efficiency | efficiently maintained
WIF1: WNT signal inhibitor; protein encoded by the polynucleotide shown in NCBI Accession Number NM_007191 (R&D Systems) | 20.2 | 54.4 | maintained with higher efficiency | efficiently maintained
